Experimental data reported in patent US8642651B2, “Methods and compositions for improved chromium complexes” (VDF Futureceuticals, Inc., priority 2004, dated 2014).
Several values for one entry are separate records, joined by “and”; a condition that tells them apart may be missing. Equal entries are not always repeated.

Key:
L6 muscle cells = test: Total glucose uptake in L6 muscle cells (2-NBDG fluorescence); format: cell-based; settings: 2 hrs treatment
Procedure: Total glucose uptake was measure using fluorescent analog of glucose, 2-NBDG (2-(N-(7-nitrobenz-2-oxa-1,3-diazol-4-yl)amino)-2-deoxyglucose) from Molecular Probes Inc. L6 myoblastic cells were treated for 2 hrs with tested compounds in culture medium SkBM from Clonetics. After washing, cells were transferred to HBSA (Hepes-buffered Saline), pH 7.0 with 50 mcM of 2-NBDG without glucose. One minute later, cells were washed with ice-cold PBS, and fixed in −20 C 70% ethanol. Fluorescence was measured at 480/530 (excitation/emission).

[1] = system: Streptozocin-induced insulin deficient rats; test: Fasted blood glucose in streptozocin-induced insulin deficient rats, chromium compounds in drinking water for four weeks; format: in vivo; settings: for Fasted Blood Glucose (fold increase over four weeks): drinking water, about 42 μg/kg, four hrs fasting
Procedure: In vivo experiments gave much more dramatic differences, which are summarized in Table 1 below in which the increase in fasting blood glucose was measured after four weeks as compared to untreated animals: Streptozocin-induced insulin deficient rats were used to evaluate the insulin potentiating activity of several compounds. […] As consequence, these rats develop severe hyperglycemia. So far, certain known chromium compounds were known to potentiate action of insulin, however, the actual mechanism was not clearly understood. […] In our studies in vivo, chromium compounds were provided in drinking water for four weeks at a concentration of about 42 μg/kg. Vein blood was collected following four hrs fasting and used for fasted blood glucose level test. The study results for two tests are given below in Table 3 in which the increase in blood glucose in given as a fold increase over four weeks.

Compound | Fold over Control, Average (L6 muscle cells; Conc. 10 nM) | Fold over Control, Average (L6 muscle cells; Conc. 100 nM) | Fold over Control, Average (L6 muscle cells; Conc. 1000 nM) | Fasted Blood Glucose (fold increase over four weeks) ([1]; STUDY 1) | also measured
O.O.O.O.O.O.[Cl][Cr]([Cl])[Cl] [CrCl3, CrCl3 hexahydrate, reference compound] | 1.55 fold | 2.05 fold | 2.08 fold | 1.32 fold | 
CN(C)C(=N)N=C(N)N [Metformin, reference compound] |  |  |  | 0.96 fold | 
Chromium-mono-Aminooxyacetate [CROA-1] | 1.72 fold | 2.36 fold | 2.39 fold |  | Fold over Control (single values) (L6 muscle cells; Conc. 10 nM): 1.41 fold and 1.66 fold and 2.10 fold; Fold over Control (single values) (L6 muscle cells; Conc. 100 nM): 2.12 fold and 2.16 fold and 2.80 fold; Fold over Control (single values) (L6 muscle cells; Conc. 1000 nM): 2.58 fold and 2.10 fold and 2.50 fold
chromium niacin [CrNiacin, reference compound] |  |  |  | 1.91 fold | 
chromium picolinate [Cr-picolinate, reference compound] |  |  |  | 2.02 fold | Fasted Blood Glucose (fold increase over four weeks) ([1]; STUDY 2): 2.37 fold; BLOOD GLUCOSE INCREASE (% of untreated) ([1]; diabetic rats, after four weeks, untreated = 100%): 95.56%; BLOOD GLUCOSE INCREASE ([1]; diabetic rats, increase in fasting blood glucose after four weeks): 2.37
